The target in this assay is Prothrombin (Homo sapiens, UniProt P00734). Put plainly: In vitro inhibitory concentration of compound against human thrombin.

On to `CCc1cccc(N(CC)C(=O)C2=CCCC2C(=O)NCc2ccc(C(=N)N)cc2)c1` (stereo not given), for which it took 270 nM to reach half-maximal inhibition (IC50).

On to `Cc1ccccc1N(CC(=O)O)C(=O)C1=C(C(=O)NCc2ccc(C(=N)N)cc2)CCC1`, for which the 50% inhibitory concentration (IC50) (in general, the concentration that inhibits the measured activity by half) was 120000 nM.

The compound `CCN(C(=O)C1=CCCC1C(=O)NCc1ccc(C(=N)N)cc1)c1cccc(OC)c1` (stereo not given) returned an IC50 of 240 nM.

On to `N=C(N)c1ccc(CNC(=O)C2=C(C(=O)NC3CCCCC3)CCC2)cc1`, for which the midpoint of inhibition, the IC50, lay at 19000 nM.

With `CCN(C(=O)C1=CCCCC1C(=O)NCc1ccc(C(=N)N)cc1)c1ccccc1` (stereo not given), half-maximal inhibition (IC50) required 3800 nM.

`CCN(C(=O)C1=CCCC1C(=O)NCc1ccc(C(=N)N)cc1)c1cc(Cl)ccc1C` (stereo not given): the concentration for half-maximal inhibition (IC50) was found to be 220 nM.

The compound `CCc1cccc(N(C(=O)C2=CCCC2C(=O)NCc2ccc(C(=N)N)cc2)C2CCCCC2)c1` (stereo not given) came in with an IC50 of 260 nM.

As for `CCN(C(=O)C1=CCCCC1C(=O)NCc1ccc(C(=N)N)cc1)c1ccccc1C` (stereo not given), the midpoint of inhibition, the IC50, lay at 4600 nM. Compared with the last compound, the IC50 is about 18-fold higher.

Take `CC1Cc2ccccc2N1C(=O)C1=CCCC1C(=O)NCc1ccc(C(=N)N)cc1` (stereo not given): the IC50 was 3400 nM. The IC50 values of the last two compounds are within 1.5-fold of each other.

As to `CCN(C(=O)C1=CCCC1C(=O)NCc1ccc(C(=N)N)cc1)c1cc(OC)cc(OC)c1` (stereo not given), the IC50 came to 210 nM.

For `CCN(C(=O)C1=CCCC1C(=O)NCc1ccc(C(=N)N)cc1)c1ccc(OC)cc1` (stereo not given), the IC50 amounted to 940 nM.

The compound `CCN(C(=O)C1=CCCC1C(=O)NCc1ccc(C(=N)N)cc1)c1ccccc1F` (stereo not given) registered a half-maximal inhibitory concentration (IC50) of 350 nM.

On to `N=C(N)c1ccc(CNC(=O)C2CCCC=C2C(=O)NCc2ccccc2)cc1` (stereo not given), for which the IC50 is 109000 nM.

Compound `CCN(C(=O)C1=CCCC1C(=O)NCc1ccc(C(=N)N)cc1)c1cccc(F)c1` (stereo not given) gave a concentration for half-maximal inhibition (IC50) of 630 nM. Against the preceding compound, the IC50 is about 170-fold lower.

For the compound `N=C(N)c1ccc(CNC(=O)C2CCCC=C2C(=O)Nc2ccccc2)cc1` (stereo not given), inhibition was half-maximal at 130000 nM (IC50).

For the compound `CCN(C(=O)C1CCC=C1C(=O)NCc1ccc(C(=N)N)cc1)c1cccc(OC)c1` (stereo not given), the 50% inhibitory concentration (IC50) came to 7800 nM.

With `N=C(N)c1ccc(CNC(=O)C2CCC=C2C(=O)N2CCc3ccccc32)cc1` (stereo not given), the IC50 was 4600 nM. Against the preceding compound, the IC50 is about 1.7-fold lower.

Turning to `COc1ccc(OC)c(N(C(=O)C2=CCCC2C(=O)NCc2ccc(C(=N)N)cc2)C2CCCCC2)c1` (stereo not given), the half-inhibitory concentration (IC50) was 49 nM.

`CCN(C(=O)C1=CCCC1C(=O)NCc1ccc(C(=N)N)cc1)c1ccccc1OC` (stereo not given): the concentration for half-maximal inhibition (IC50) stood at 250 nM.

Turning to `CCN(C(=O)C1CCC=C1C(=O)NCc1ccc(C(=N)N)cc1)c1ccccc1F` (stereo not given), the IC50 is 93000 nM. This IC50 is about 370-fold higher than that of the compound before.

For `Cc1ccccc1N(CC(=O)O)C(=O)C1=CCCC1C(=O)NCc1ccc(C(=N)N)cc1` (stereo not given), it took 1300 nM to reach half-maximal inhibition (IC50).

Turning to `CCN(C(=O)C1=CCC[C@H]1C(=O)NCc1ccc(C(=N)N)cc1)c1cccc(OC)c1`, the IC50 turned out to be 120 nM.

For the compound `CCN(C(=O)C1=C(C(=O)NCc2ccc(C(=N)N)cc2)CCC1)c1ccccc1`, the half-inhibitory concentration (IC50) came out at 28000 nM.

`CCN(C(=O)C1=CCCC1C(=O)NCc1ccc(C(=N)N)cc1)c1ccccc1C` (stereo not given) registered an IC50 of 680 nM.

The compound `CCN(C(=O)C1=C(C(=O)NCc2ccc(C(=N)N)cc2)CCC1)c1cc(Cl)ccc1C` yielded a concentration for half-maximal inhibition (IC50) of 23000 nM.

The compound `CCN(C(=O)C1=CCCC1C(=O)NCc1ccc(C(=N)N)cc1)c1cc(OC)ccc1OC` (stereo not given) registered an IC50 of 73 nM. Compared with the last compound, the IC50 is about 320-fold lower.

With `N=C(N)c1ccc(CNC(=O)C2=C(C(=O)N3CCc4ccccc43)CCC2)cc1`, the IC50 was above 130000 nM.

As for `N=C(N)c1ccc(CNC(=O)C2CCC=C2C(=O)N2CCCCC2)cc1` (stereo not given), the concentration for half-maximal inhibition (IC50) was 6000 nM.

Compound `N=C(N)c1ccc(CNC(=O)C2CCCC=C2C(=O)NC2CCCCC2)cc1` (stereo not given) yielded a half-inhibitory concentration (IC50) above 130000 nM.

`CCN(C(=O)C1CCC=C1C(=O)NCc1ccc(C(=N)N)cc1)c1ccccc1` (stereo not given) returned an IC50 of 16000 nM. That is a double-digit micromolar value.

As for `CCN(C(=O)C1=CCCC1C(=O)NCc1ccc(C(=N)N)cc1)c1ccccc1` (stereo not given), the IC50 came to 970 nM. Compared with the last compound, the IC50 is about 16-fold lower.

`N=C(N)c1ccc(CNC(=O)C2CCCC=C2C(=O)N2CCCCC2)cc1` (stereo not given) gave an IC50 of 38000 nM.

For `CCN(C(=O)C1=CCCC1C(=O)NCc1ccc(C(=N)N)cc1)c1cccc(Cl)c1` (stereo not given), the IC50 was found to be 390 nM. This IC50 is about 97-fold lower than that of the compound before.

With `CCN(C(=O)C1=C(C(=O)NCc2ccc(C(=N)N)cc2)CCC1)c1cccc(OC)c1`, half-maximal inhibition (IC50) required 24000 nM.

`N=C(N)NCCC[C@H](NC(=O)[C@@H]1CCCN1C(=O)C(N)Cc1ccccc1)C(=O)O` (stereo in doubt) had a concentration for half-maximal inhibition (IC50) of 0.017 nM.

For the origin of these results see ChEMBL document CHEMBL1144919, “Synthesis of novel thrombin inhibitors. Use of ring-closing metathesis reactions for synthesis of P2 cyclopentene- and cyclohexenedicarboxylic acid derivatives” (J Med Chem, 2003).
